Common to all, as to format: biochemical
One assay has as its target T1, human chymase (Homo sapiens, UniProt P23946).
T1 construct: 60 g human tonsils were finely divided by scissors and a scalpel; from tissue; host or cells: human tonsils
T1 sequence (P23946 22-247): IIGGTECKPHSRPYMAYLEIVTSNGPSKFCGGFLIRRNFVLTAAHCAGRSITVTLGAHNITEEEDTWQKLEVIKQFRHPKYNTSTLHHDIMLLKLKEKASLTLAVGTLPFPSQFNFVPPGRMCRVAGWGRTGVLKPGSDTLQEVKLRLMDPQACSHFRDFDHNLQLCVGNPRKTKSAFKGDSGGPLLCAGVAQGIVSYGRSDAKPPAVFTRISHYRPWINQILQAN
The assay is described as follows: Inhibitory activity on human chymase (angiotensin I as substrate). The note with it: for IC50: substrate angiotensin I, pH 8.0, 37° C., 60 min, read-out: Human Chymase (IC50: nM), 50% inhibitory concentration. The source says: It is known that chymase is present in tissues of various animals, and its isolation and purification methods are described in Anal. Biochem., 137, 449 (1984) and FEBS Letters, 323, 119 (1993). In the present invention, chymase was purified by the methods described in these literatures, and the present compounds were examined for inhibitory activity on chymase, inhibitory action on activation of mast cells and eosinophils, and pharmacological action in animals. Hereinafter, specific methods are described. 50 g rat tongue was finely divided by scissors and a scalpel, suspended in 0.1 M phosphate buffer (pH 8.0), and disrupted by a Polytron homogenizer for 5 minutes to prepare a crude chymase enzyme solution. […] The supernatant was applied to an octyl Sepharose 4B column (40×100 mm) previously equilibrated with 0.1 M phosphate buffer (pH 8.0) containing 2 M sodium chloride and 5% ammonium sulfate, and the protein was eluted with a linear concentration gradient of from 2 M to 0 M sodium chloride. An active fraction decomposing succinyl leucyl leucyl valyl tyrosyl methylcumarylamide (hereinafter referred to as the synthetic chymase substrate, a product of Peptide Kenkyusho) was recovered and concentrated and this product was used as a purified rat chymase in the following activity measurement. (B) Preparation of human chymase 60 g human tonsils were finely divided by scissors and a scalpel, suspended in 0.1 M phosphate buffer (pH 8.0), and A-disrupted by a Polytron homogenizer for 5 minutes to prepare a crude chymase enzyme solution. It was centrifuged at 22000×g for 30 minutes, and the precipitates were used as a chymase enzyme fraction. […] The supernatant was concentrated by an ultrafiltration membrane, then applied to […] column (6.0×300 mm), and eluted with 0.1 M phosphate buffer (pH 8.0). An active fraction decomposing the synthetic chymase substrate was recovered and concentrated and this product was used as a purified human chymase in the following activity measurement. (D) Measurement of inhibitory activity on chymase (b) Measurement using angiotensin I as substrate The inhibitory activity on the human chymase and dog chymase was measured using angiotensin I (Peptide Kenkyusho) as substrate besides the above synthetic substrate. […] After the end of the reaction, produced angiotensin II was immediately measured by high performance liquid chromatography to determine the activity of the chymase to calculate 50% inhibitory concentration (IC50: nM). The test was conducted several times. Chymase was prepared for each test in the manner described above. The compounds examined were compounds prepared in the above-described examples. […] 50% Inhibitory concentration (IC50: nM) of each compound toward rat chymase, dog […] human […] Substrate: Succinyl leucyl leucyl valyl tyrosyl methylcoumarylamide (for rat […] angiotensin I (for human and dog chymase)

The next assay deals with T2, Human thrombin (Homo sapiens, UniProt P00734).
T2 construct: human thrombin
The assay is described as follows: Inhibitory activity on proteases other than chymase: human thrombin. The procedure:
(§1) (E) Measurement of inhibitory activity on proteases other than chymase
(§2) The inhibitory activity of the present compounds on human elastase, human cathepsin G, human urokinase, human thrombin, human plasmin, and human factor Xa was determined using their corresponding synthetic substrates in the same manner as for chymase. All the above proteases were those commercially available from Boehringer Mannheim or purified by a combination of known methods. The synthetic substrates were those produced by Peptide Renkyusho. The synthetic substrates for the respective proteases are as follows.
Human thrombin Benzyloxycarbonyl asparginyl prolyl arginyl
(§3) The test was conducted several times. Chymase was prepared for each test in the manner described above. The compounds examined were compounds prepared in the above-described examples.

A further assay concerns the target T3, Human plasmin (Homo sapiens, UniProt P00747).
T3 construct: human plasmin
The assay is described as follows: Inhibitory activity on proteases other than chymase: human plasmin. The note with it: benzyloxycarbonyl valyl leucyl lyzyl methylcoumarylamide substrate; read-out: 50% Inhibitory concentration toward Human plasmin. The procedure:
as §1, §2
Human plasmin Benzyloxycarbonyl valyl leucyl lyzyl
as §3

For the next assay, the target named is T4, Human cathepsin G (Homo sapiens, UniProt P08311).
T4 sequence (P08311 21-255): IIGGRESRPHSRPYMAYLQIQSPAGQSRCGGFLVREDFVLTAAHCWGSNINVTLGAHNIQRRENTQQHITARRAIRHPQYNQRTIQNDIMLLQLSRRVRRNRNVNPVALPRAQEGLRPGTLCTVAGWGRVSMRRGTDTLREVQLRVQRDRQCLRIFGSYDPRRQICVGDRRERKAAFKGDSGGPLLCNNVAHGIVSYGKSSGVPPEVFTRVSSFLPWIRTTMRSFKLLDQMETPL
As to the kind of experiment: Inhibitory activity on proteases other than chymase: human cathepsin G. The note with it: succinyl alanyl alanyl propyl phenylmethylcoumarylamide substrate; read-out: 50% Inhibitory concentration toward Human cathepsin G. The procedure: as §1, §2
Human cathepsin G Succinyl alanyl alanyl propyl phenylmethyl-
as §3

The subject of a further assay is other human proteases. As to the kind of experiment: Inhibitory activity on other human proteases (summary). As for the experimental part:
as §1, §2, §3

SMILES strings stand for the structures. Where a name gives a salt, the structure may show the parent alone.

T3 sequence (P00747 581-810 limits assumed): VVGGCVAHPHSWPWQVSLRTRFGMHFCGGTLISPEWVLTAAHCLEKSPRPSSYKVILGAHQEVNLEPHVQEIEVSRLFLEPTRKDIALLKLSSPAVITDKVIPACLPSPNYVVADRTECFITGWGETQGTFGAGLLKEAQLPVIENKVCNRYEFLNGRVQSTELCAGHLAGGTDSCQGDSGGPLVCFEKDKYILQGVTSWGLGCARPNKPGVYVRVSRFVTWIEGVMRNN
T3 sequence (P00747 97-580 partner limits assumed): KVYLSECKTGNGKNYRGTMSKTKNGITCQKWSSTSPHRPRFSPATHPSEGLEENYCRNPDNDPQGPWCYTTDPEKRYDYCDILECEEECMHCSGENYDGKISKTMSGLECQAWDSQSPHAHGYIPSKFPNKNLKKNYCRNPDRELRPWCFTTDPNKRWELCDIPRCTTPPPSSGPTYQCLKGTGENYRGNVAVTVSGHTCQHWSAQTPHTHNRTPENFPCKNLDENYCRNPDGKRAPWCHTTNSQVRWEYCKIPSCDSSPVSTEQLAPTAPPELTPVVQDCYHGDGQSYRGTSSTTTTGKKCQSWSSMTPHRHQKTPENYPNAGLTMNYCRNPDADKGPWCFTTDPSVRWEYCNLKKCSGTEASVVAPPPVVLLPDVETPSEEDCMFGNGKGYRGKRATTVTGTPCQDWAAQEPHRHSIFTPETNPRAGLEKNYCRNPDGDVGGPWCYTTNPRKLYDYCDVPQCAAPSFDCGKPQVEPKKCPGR

For `Nc1cnc(-c2ccccc2)n(CC(=O)NC(Cc2ccccc2)C(=O)C(=O)CCCc2ccccc2)c1=O` (stereo not drawn) [Compound 40], the IC50 on human chymase was 190 nM; on Human thrombin, greater than 10000 nM; on Human plasmin, greater than 10000 nM; on Human cathepsin G it was greater than 10000 nM.
On to `CCCCC(=O)C(=O)C(Cc1ccccc1)NC(=O)Cn1c(-c2ccccc2)ncc(N)c1=O` (stereo not drawn) [Compound 44], for which the IC50 at human chymase was determined as 146 nM.
For `CC(=O)C(=O)C(Cc1cccc(F)c1)NC(=O)Cn1c(-c2ccccc2)ncc(N)c1=O` (stereo not drawn) [Compound 52, 2-(5-Amino-6-oxo-2-phenyl-1,6-dihydropyrimidine-1-yl)-N-{1-(3-fluorophenyl)methyl-2,3-dioxo}butylacetamide], the IC50 on human chymase was 120 nM; on Human thrombin it was greater than 10000 nM; at Human plasmin it was greater than 10000 nM; on Human cathepsin G, 350 nM.
In the case of `CCOC(=O)CCCC(=O)C(=O)C(Cc1cccc(F)c1)NC(=O)Cn1c(-c2ccccc2)ncc(N)c1=O` (stereo not drawn) [Compound 54], on human chymase, the “inhibitory activity on human chymase, in words” value was “strong inhibitory activity on human chymase” and the IC50 was 36 nM. Besides, the “inhibitory activity on other human proteases, in words” value with other human proteases is given as “no inhibitory activity on other human proteases”.
`CC(C)(C)OC(=O)Nc1cnc(-c2ccccc2)n(CC(=O)NC(Cc2ccccc2)C(=O)C(=O)CCCn2ccccc2=O)c1=O` (stereo not drawn) [Compound 72, 2-(5-t-Butyloxycarbonylamino-6-oxo-2-phenyl-1,6-dihydropyrimidine-1-yl)-N-{2,3-dioxo-6-(2-oxo-1,2-dihydropyridine-1-yl)-1-phenylmethyl}hexylacetamide]: the “inhibitory activity on human chymase, in words” value on human chymase is given as “strong inhibitory activity on human chymase”. The IC50 was 90 nM on human chymase, greater than 10000 nM at Human thrombin, greater than 10000 nM on Human plasmin and 540 nM on Human cathepsin G. The “inhibitory activity on other human proteases, in words” value in the assay with other human proteases is listed as “no inhibitory activity on other human proteases”.
In the case of `Nc1cnc(-c2ccccc2)n(CC(=O)NC(Cc2ccccc2)C(=O)C(=O)CCCn2ccccc2=O)c1=O` (stereo not drawn) [Compound 73, 2-(5-Amino-6-oxo-2-phenyl-1,6-dihydropyrimidine-1-yl)-N-{2,3-dioxo-1-phenylmethyl-6-(2-oxo-1,2-dihydropyridine-1-yl)}hexylacetamide hydrochloride], at human chymase, the “inhibitory activity on human chymase, in words” value is listed as “strong inhibitory activity on human chymase” and the IC50 came to 46 nM. In addition, in the assay on other human proteases, the “inhibitory activity on other human proteases, in words” value is on record as “no inhibitory activity on other human proteases”.
For the molecule `CC(C)(C)OC(=O)Nc1cnc(-c2ccccc2)n(CC(=O)NC(Cc2ccccc2)C(=O)C(=O)CCCOc2ccccn2)c1=O` (stereo not drawn) [Compound 74, 2-(5-t-Butyloxycarbonylamino-6-oxo-2-phenyl-1,6-dihydropyrimidine-1-yl)-N-{2,3-dioxo-6-(2-pyridyloxy)-1-phenylmethyl}hexylacetamide], the “inhibitory activity on human chymase, in words” value on human chymase was “strong inhibitory activity on human chymase”. Further, the IC50 is 11 nM on human chymase, greater than 10000 nM on Human thrombin, greater than 10000 nM at Human plasmin and 90 nM at Human cathepsin G. Also, in the assay on other human proteases, the “inhibitory activity on other human proteases, in words” value is on record as “no inhibitory activity on other human proteases”.
Consider `O=CNc1cnc(-c2ccccc2)n(CC(=O)NC(Cc2ccccc2)C(=O)C(=O)CCCOc2ccccn2)c1=O` (stereo not drawn) [Compound 79, 2-(5-Formylamino-6-oxo-2-phenyl-1,6-dihydropyrimidine-1-yl)-N-{2,3-dioxo-1-phenylmethyl-6-(2-pyridyloxy)}hexylacetamide], for which, at human chymase, the “inhibitory activity on human chymase, in words” value is given as “strong inhibitory activity on human chymase”. Besides, the IC50 on human chymase was 2.4 nM; at Human thrombin, greater than 10000 nM; on Human plasmin it was greater than 10000 nM; at Human cathepsin G it was 420 nM. Moreover, the “inhibitory activity on other human proteases, in words” value in the assay with other human proteases is reported as “no inhibitory activity on other human proteases”.
As for `CC(=O)Nc1cnc(-c2ccccc2)n(CC(=O)NC(Cc2ccccc2)C(=O)C(=O)CCCOc2ccccn2)c1=O` (stereo not drawn) [Compound 80, 2-(5-Acetylamino-6-oxo-2-phenyl-1,6-dihydropyrimidine1-yl)-N-{2,3-dioxo-1-phenylmethyl-6-(-2-pyridyloxy)}hexyl-acetamide], the “inhibitory activity on human chymase, in words” value at human chymase was “strong inhibitory activity on human chymase”. Besides, the IC50 was 0.9 nM at human chymase, greater than 10000 nM on Human thrombin, greater than 10000 nM at Human plasmin and 18 nM at Human cathepsin G. For the same molecule, in the assay on other human proteases, the “inhibitory activity on other human proteases, in words” value is reported as “no inhibitory activity on other human proteases”.
Regarding `O=C(Cn1c(-c2ccccc2)ncc(NS(=O)(=O)NCc2ccccc2)c1=O)NC(Cc1ccccc1)C(=O)C(=O)CCCOc1ccccn1` (stereo not drawn) [Compound 82, 2-(5-Benzylaminosulfonylamino-6-oxo-2-phenyl-1,6-dihydropyrimidine-1-yl)-N-{2,3-dioxo-1-phenylmethyl-6-(2-pyridyloxy)}hexylacetamide], on human chymase, the “inhibitory activity on human chymase, in words” value is given as “strong inhibitory activity on human chymase”. In addition, the IC50 is 0.74 nM at human chymase, greater than 10000 nM on Human thrombin, greater than 10000 nM on Human plasmin and 19 nM on Human cathepsin G. For the same molecule, in the assay with other human proteases, the “inhibitory activity on other human proteases, in words” value is recorded as “no inhibitory activity on other human proteases”.

Values taken from patent publication US6271238A, “Acetamide derivatives and protease inhibitors” (Nippon Kayaku Kabushiki Kaisha, priority 1996, dated 2001).
